Data from US20160346291A1, “COMPOSITIONS AND THERAPEUTIC METHODS FOR ACCELERATED PLAQUE REGRESSION” (Resverlogix Corp, priority 2013, published 2016).
Read-outs that look alike come from different tables or passages of the source.

Key:
coronary atherosclerosis [1] = settings: cited from earlier work
coronary atherosclerosis [2] = settings: 2 years; rosuvastatin 40 mg daily, atorvastatin 80 mg daily; cited from earlier work
ABCA1 = settings: cited from earlier work
ApoA-I mRNA = ApoA-I mRNA quantitation in HepG2 cells (real-time PCR); assay type: cell-based; parameters: key: Active: An active compound is one that causes a >15% increase in ApoA-I mRNA at a concentration less than or equal to 100 uM; settings: concentration less than or equal to 100 uM, fold induction relative to DMSO control
How it was run: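 HepG2 cells were lysed after compound treatment and mRNA captured on oligo plates, then quantified by one-step real-time RT-PCR with primer-probe mixes. Ct values gave fold induction relative to the matching DMSO control. Active means >15% increase in ApoA-I mRNA at ≤100 uM.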

coronary atherosclerosis [3] = settings: 2 years; pravastatin 40 mg daily, atorvastatin 80 mg daily; cited from earlier work

For `CC(C)c1nc(N(C)S(C)(=O)=O)nc(-c2ccc(F)cc2)c1/C=C/[C@@H](O)C[C@@H](O)CC(=O)O` [rosuvastatin, (3R,5S,6E)-7-[4-(4-fluorophenyl)-2-(N-methylmethanesulfonamido)-6-(propan-2-yl)pyrimidin-5-yl]-3,5-dihydroxyhept-6-enoic acid], the “median change PAV” value (coronary atherosclerosis [1]; 2 years, rosuvastatin 40 mg daily, overall) is given as −0.79%, the “median decrease in PAV from baseline” value (coronary atherosclerosis [1]; 2 years, rosuvastatin 40 mg daily, subgroup with average HDL-C during treatment less than 40 mg/dL) is given as −1.3% and the PAV decrease (coronary atherosclerosis [1]; FIG. 8, 40 mg of rosuvastatin without RVX-208, after 104 weeks) is given as 1.30%. The “median change in PAV” value (coronary atherosclerosis [2]) was −1.22% and the “effect on expression of ABCA1” value (ABCA1) was “increase expression of ABCA1”.

With `COc1cc(OC)c2c(=O)[nH]c(-c3ccc(N4CCN(C)CC4)cc3)nc2c1` [5,7-dimethoxy-2-(4-(4-methylpiperazin-1-yl)phenyl)quinazolin-4(3H)-one] the “Effect on ApoA-I mRNA levels” value (ApoA-I mRNA) was “Active”.

For `CC(C)c1c(C(=O)Nc2ccccc2)c(-c2ccccc2)c(-c2ccc(F)cc2)n1CC[C@@H](O)C[C@@H](O)CC(=O)O` [atorvastatin], the “median change in PAV” value (coronary atherosclerosis [3]) is listed as “+0.2%”, the “median change in PAV” value (coronary atherosclerosis [2]) is listed as −0.99% and the “effect on expression of ABCA1” value (ABCA1) is listed as “inhibit ABCA1 expression”.

In the case of `Cc1cc(-c2nc3cc(Cl)cc(Cl)c3c(=O)[nH]2)cc(C)c1OCCO` [5,7-dichloro-2-(4-(2-hydroxyethoxy)-3,5-dimethylphenyl)quinazolin-4(3H)-one], the “Effect on ApoA-I mRNA levels” value (ApoA-I mRNA) is reported as “Active”.

In the case of `COc1cc(OC)c2c(=O)[nH]c(-c3cc(C)c(O)c(C)c3)cc2c1` [3-(4-hydroxy-3,5-dimethylphenyl)-6,8-dimethoxyisoquinolin-1(2H)-one], the “Effect on ApoA-I mRNA levels” value (ApoA-I mRNA) is reported as “Active”.

For `COc1cc(OC)c2c(=O)[nH]c(-c3cc(C)c(OCCNC(=O)C(C)C)c(C)c3)nc2c1` [N-(2-(4-(5,7-dimethoxy-4-oxo-3,4-dihydroquinazolin-2-yl)-2,6-dimethylphenoxy)ethyl)isobutyramide], the “Effect on ApoA-I mRNA levels” value (ApoA-I mRNA) was “Active”.

In the case of `COc1cccc2nc(-c3cc(C)c(OCCO)c(C)c3)[nH]c(=O)c12` [2-(4-(2-hydroxyethoxy)-3,5-dimethylphenyl)-5-methoxyquinazolin-4(3H)-one], the “Effect on ApoA-I mRNA levels” value (ApoA-I mRNA) is reported as “Active”.

For `CC(=O)Nc1ccc2nc(-c3cc(C)c(OCCO)c(C)c3)[nH]c(=O)c2c1` [N-(2-(4-(2-hydroxyethoxy)-3,5-dimethylphenyl)-4-oxo-3,4-dihydroquinazolin-6-yl)acetamide], the “Effect on ApoA-I mRNA levels” value (ApoA-I mRNA) was “Active”.

With `COc1cc(OC)c2c(=O)[nH]c(-c3cc(C)c(OCCN4CCOCC4)c(C)c3)cc2n1` [7-(3,5-dimethyl-4-(2-morpholinoethoxy)phenyl)-2,4-dimethoxy-1,6-naphthyridin-5(6H)-one] the “Effect on ApoA-I mRNA levels” value (ApoA-I mRNA) was “Active”.

In the case of `COc1cc(OC)c2c(=O)[nH]c(-c3cc(C)c(OCCO)c(C)c3)nc2c1` [2-(4-(2-hydroxyethoxy)-3,5-dimethylphenyl)-5,7-dimethoxyquinazolin-4(3H)-one], the “Effect on ApoA-I mRNA levels” value (ApoA-I mRNA) is reported as “Active”.

With `COc1cc(OC)c2c(=O)[nH]c(-c3cc(C)c(OCCN4CCOCC4)c(C)c3)cc2c1` [3-(3,5-dimethyl-4-(2-morpholinoethoxy)phenyl)-6,8-dimethoxyisoquinolin-1(2H)-one] the “Effect on ApoA-I mRNA levels” value (ApoA-I mRNA) was “Active”.

For `NC(=O)COc1ccc(-c2nc3ccccc3c(=O)[nH]2)cc1` [2-(4-(4-oxo-3,4-dihydroquinazolin-2-yl)phenoxy)acetamide], the “Effect on ApoA-I mRNA levels” value (ApoA-I mRNA) was “Active”.

For `COc1ccc(C(=O)NCCOc2c(C)cc(-c3nc4cc(OC)cc(OC)c4c(=O)[nH]3)cc2C)cc1` [N-(2-(4-(5,7-dimethoxy-4-oxo-3,4-dihydroquinazolin-2-yl)-2,6-dimethylphenoxy)ethyl)-4-methoxybenzamide], the “Effect on ApoA-I mRNA levels” value (ApoA-I mRNA) was “Active”.

In the case of `COc1cc(OC)c2c(=O)[nH]c(-c3cc(C)c(O)c(C)c3)nc2n1` [2-(4-hydroxy-3,5-dimethylphenyl)-5,7-dimethoxypyrido[2,3-d]pyrimidin-4(3H)-one], the “Effect on ApoA-I mRNA levels” value (ApoA-I mRNA) is reported as “Active”.

In the case of `COc1cc(OC)c2c(=O)[nH]c(-c3cc(C)c(OC)c(C)c3)nc2c1` [5,7-dimethoxy-2-(4-methoxy-3,5-dimethylphenyl)quinazolin-4(3H)-one], the “Effect on ApoA-I mRNA levels” value (ApoA-I mRNA) is reported as “Active”.

For `COc1cc(OC)c2c(=O)[nH]c(-c3cc(C)c(N)c(C)c3)nc2c1` [2-(4-amino-3,5-dimethylphenyl)-5,7-dimethoxyquinazolin-4(3H)-one], the “Effect on ApoA-I mRNA levels” value (ApoA-I mRNA) was “Active”.

For `O=c1[nH]c(-c2ccc(N(CCO)CCO)cc2)nc2ccccc12` [2-(4-(bis(2-hydroxyethyl)amino)phenyl)quinazolin-4(3H)-one], the “Effect on ApoA-I mRNA levels” value (ApoA-I mRNA) was “Active”.

In the case of `COc1cc(OC)c2c(=O)[nH]c(-c3ccc(NC(=O)CO)cc3)nc2c1` [N-(4-(5,7-dimethoxy-4-oxo-3,4-dihydroquinazolin-2-yl)phenyl)-2-hydroxyacetamide], the “Effect on ApoA-I mRNA levels” value (ApoA-I mRNA) is reported as “Active”.

With `O=c1[nH]c(-c2ccc3c(c2)OCCO3)nc2ccccc12` [2-(2,3-dihydrobenzo[b][1,4]dioxin-6-yl)quinazolin-4(3H)-one] the “Effect on ApoA-I mRNA levels” value (ApoA-I mRNA) was “Active”.

With `COc1cc(OC)c2c(=O)[nH]c(-c3ccccn3)nc2c1` [5,7-dimethoxy-2-(pyridin-2-yl)quinazolin-4(3H)-one] the “Effect on ApoA-I mRNA levels” value (ApoA-I mRNA) was “Active”.

With `COc1cc(OC)c2c(=O)[nH]c(-c3cc(C)c(OC)c(C)c3)cc2n1` [2,4-dimethoxy-7-(4-methoxy-3,5-dimethylphenyl)-1,6-naphthyridin-5(6H)-one] the “Effect on ApoA-I mRNA levels” value (ApoA-I mRNA) was “Active”.

In the case of `COc1ccc(-c2nc3cc(OC)cc(OC)c3c(=O)[nH]2)cc1` [5,7-dimethoxy-2-(4-methoxyphenyl)quinazolin-4(3H)-one], the “Effect on ApoA-I mRNA levels” value (ApoA-I mRNA) is reported as “Active”.

In the case of `COc1cc(OC)c2c(=O)[nH]c(-c3ccccc3C)nc2c1` [5,7-dimethoxy-2-o-tolylquinazolin-4(3H)-one], the “Effect on ApoA-I mRNA levels” value (ApoA-I mRNA) is reported as “Active”.

With `Oc1ccc(-c2cc3ccccc3cn2)cc1` [4-Isoquinolin-3-yl-phenol] the “Effect on ApoA-I mRNA levels” value (ApoA-I mRNA) was “Active”.

With `COc1cc2nc(-c3cc(C)c(O)c(C)c3)[nH]c(=O)c2c(OC)c1CN1CCOCC1` [2-(4-hydroxy-3,5-dimethylphenyl)-5,7-dimethoxy-6-(morpholinomethyl)quinazolin-4(3H)-one] the “Effect on ApoA-I mRNA levels” value (ApoA-I mRNA) was “Active”.

In the case of `COc1cc(OC)c2c(=O)[nH]c(-c3cc(C)cc(C)c3)nc2c1` [2-(3,5-dimethylphenyl)-5,7-dimethoxyquinazolin-4(3H)-one], the “Effect on ApoA-I mRNA levels” value (ApoA-I mRNA) is reported as “Active”.

In the case of `O=C(O)C[C@H](O)C[C@H](O)/C=C/c1c(C2CC2)nc2ccccc2c1-c1ccc(F)cc1` [pitavastatin, (3R,5S,6E)-7-[2-cyclopropyl-4-(4-fluorophenyl)quinolin-3-yl]-3,5-dihydroxyhept-6-enoic acid], the “effect on expression of ABCA1” value (ABCA1) is given as “increase expression of ABCA1”.

With `COc1cc(OC)c2c(=O)[nH]c(-c3ccc(O)c(Cl)c3)nc2c1` [2-(3-chloro-4-hydroxyphenyl)-5,7-dimethoxyquinazolin-4(3H)-one] the “Effect on ApoA-I mRNA levels” value (ApoA-I mRNA) was “Active”.

With `COc1cc(OC)c2c(=O)[nH]c(-c3cc(C)c(OCCNS(=O)(=O)c4ccccc4)c(C)c3)nc2c1` [N-(2-(4-(5,7-dimethoxy-4-oxo-3,4-dihydroquinazolin-2-yl)-2,6-dimethylphenoxy)ethyl)benzenesulfonamide] the “Effect on ApoA-I mRNA levels” value (ApoA-I mRNA) was “Active”.

For `COc1cc(OC)c2c(=O)[nH]c(-c3ccc(OCC(=O)O)c(OC)c3)nc2c1` [2-(4-(5,7-dimethoxy-4-oxo-3,4-dihydroquinazolin-2-yl)-2-methoxyphenoxy)acetic acid], the “Effect on ApoA-I mRNA levels” value (ApoA-I mRNA) was “Active”.

For `Oc1ccc(-c2cc3ncccc3cn2)cc1` [4-(1,6-naphthyridin-7-yl)phenol], the “Effect on ApoA-I mRNA levels” value (ApoA-I mRNA) was “Active”.

In the case of `Cc1cc(-c2nc3ccc(Br)cc3c(=O)[nH]2)cc(C)c1O` [6-bromo-2-(4-hydroxy-3,5-dimethylphenyl)quinazolin-4(3H)-one], the “Effect on ApoA-I mRNA levels” value (ApoA-I mRNA) is reported as “Active”.

In the case of `CN(C)c1ccc(-c2nc3ccccc3c(=O)[nH]2)c2ccccc12` [2-(4-(dimethylamino)naphthalene-1-yl)quinazolin-4(3H)-one], the “Effect on ApoA-I mRNA levels” value (ApoA-I mRNA) is reported as “Active”.

For `Cc1cc(-c2nc3ccc(CN4CCOCC4)cc3c(=O)[nH]2)cc(C)c1O` [2-(4-hydroxy-3,5-dimethylphenyl)-6-(morpholinomethyl)quinazolin-4(3H)-one], the “Effect on ApoA-I mRNA levels” value (ApoA-I mRNA) was “Active”.
